Data set [1] has as its target T1, Peroxisome proliferator-activated receptor delta (Homo sapiens, UniProt Q03181).
T1 sequence (Q03181 whole entry): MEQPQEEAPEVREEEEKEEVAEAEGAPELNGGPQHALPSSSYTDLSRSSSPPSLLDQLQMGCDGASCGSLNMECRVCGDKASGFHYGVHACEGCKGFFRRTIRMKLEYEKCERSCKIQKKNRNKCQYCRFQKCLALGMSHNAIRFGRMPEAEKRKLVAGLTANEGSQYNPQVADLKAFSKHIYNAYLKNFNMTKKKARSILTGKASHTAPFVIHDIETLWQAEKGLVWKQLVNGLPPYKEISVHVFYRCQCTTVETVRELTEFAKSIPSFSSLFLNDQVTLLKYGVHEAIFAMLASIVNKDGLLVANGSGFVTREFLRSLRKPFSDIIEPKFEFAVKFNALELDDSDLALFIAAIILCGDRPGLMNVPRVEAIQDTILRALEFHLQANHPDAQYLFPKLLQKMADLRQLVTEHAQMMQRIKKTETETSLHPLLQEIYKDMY
Description: In vitro binding affinity was tested towards human Peroxisome proliferator activated receptor delta

The target in data set [2] is T1, Peroxisome proliferator-activated receptor delta. It counts as functional.
Description: In vitro activity in human Peroxisome proliferator activated receptor delta-transactivation assay
Data set [3] in a line: in vivo. As to conditions: Sprague-Dawley, rat, po.
Description: Oral bioavailability in rat (Sprague-Dawley)
The species entered for data set [4] is Rattus norvegicus. Particulars: in vivo.
Description: Area under curve in SD rats
Data set [5] in a line: in vivo. As to conditions: Sprague-Dawley, rat, po, 2 mg/kg.
Description: Clearance in Sprague-Dawley rats after 2mg/kg oral dose
For data set [6], the species on record is Rattus norvegicus. As to conditions: in vivo, po.
Description: Area under curve for a 2-mpk po dose in SD rats
For data set [7], the target named is T2, Peroxisome proliferator-activated receptor alpha (Homo sapiens, UniProt Q07869).
T2 sequence (Q07869 whole entry): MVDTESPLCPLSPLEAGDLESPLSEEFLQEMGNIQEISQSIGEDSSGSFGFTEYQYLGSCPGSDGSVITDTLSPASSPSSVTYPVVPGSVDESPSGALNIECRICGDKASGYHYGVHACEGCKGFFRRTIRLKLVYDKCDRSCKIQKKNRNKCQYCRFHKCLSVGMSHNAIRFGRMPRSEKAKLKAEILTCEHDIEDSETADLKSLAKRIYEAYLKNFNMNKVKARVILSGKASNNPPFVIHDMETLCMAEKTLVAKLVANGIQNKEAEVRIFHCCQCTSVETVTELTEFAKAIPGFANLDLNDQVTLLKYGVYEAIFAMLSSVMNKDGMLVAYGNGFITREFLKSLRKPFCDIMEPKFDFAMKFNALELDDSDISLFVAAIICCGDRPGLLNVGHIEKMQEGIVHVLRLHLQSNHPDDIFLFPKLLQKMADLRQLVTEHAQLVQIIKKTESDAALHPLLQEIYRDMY
It counts as functional.
Description: In vitro activity in human Peroxisome proliferator activated receptor alpha-transactivation assay

Data set [8] can be described thus: in vivo. As to conditions: Sprague-Dawley, rat.
Description: Half life period in SD rats
Data set [9] has as its target T2, Peroxisome proliferator-activated receptor alpha.
Description: In vitro binding affinity was tested towards human Peroxisome proliferator activated receptor alpha

The IC50 is the concentration that inhibits the measured activity by half. The low end stands for inhibition by little substance, the high end for a need for much substance. On to `CCCc1cc(C2CCC(O)CC2)ccc1OCCCOc1cccc(C2OC(=O)NC2=O)c1` (stereo unspecified), for which the IC50 in data set [1] was over 50 µM.
Compound `CCCc1cc(C2CCCC2)ccc1OCCCOc1cccc(C2OC(=O)NC2=O)c1` (stereo unspecified) had an IC50 in [1] of 3.85 µM.
In general, EC50 refers to the midpoint of the concentration-response curve. Low values mean a more potent agent, high ones a less potent agent. `CCCc1cc(C(=O)c2ccc(Cl)cc2)ccc1OCCCOc1cccc(C2SC(=O)NC2=O)c1` (stereo unspecified) had an IC50 in [1] of over 50 µM. The EC50 in data set [2] was over 3 µM.
In turn, `CCCc1cc(C=C2CCCCC2)ccc1OCCCOc1cccc(C2SC(=O)NC2=O)c1` (stereo unspecified) displayed an IC50 in data set [1] of over 50 µM. This compound also gave an EC50 in [2] of over 3 µM.
In [1], `CCCc1cc(C2CCOCC2)ccc1OCCCOc1cccc(C2OC(=O)NC2=O)c1` (stereo unspecified) gave an IC50 of over 50 µM.
In the case of `CCCc1cc(OC2CCCC2)ccc1OCCCOc1cccc(C2SC(=O)NC2=O)c1` (stereo unspecified), the IC50 in [1] was 0.92 µM.
`CCCc1cc(C2CCCCCC2)ccc1OCCCOc1cccc(C2OC(=O)NC2=O)c1` (stereo unspecified) showed an IC50 in [1] of over 50 µM. For the same compound, the EC50 in data set [2] was over 3 µM.
Regarding `CCCc1cc(OC2CCCCCC2)ccc1OCCCOc1cccc(C2SC(=O)NC2=O)c1` (stereo unspecified), in data set [1], the IC50 was over 50 µM.
Regarding `CCCc1cc(C2CCCCC2)ccc1OCCCOc1cccc(C2OC(=O)NC2=O)c1` (stereo unspecified), in data set [1], the IC50 was over 50 µM. Further, in [2], the EC50 is over 3 µM.
Taken in the same sequence, the figures for `CCCc1cc(C2CCC(C)(C)CC2)ccc1OCCCOc1cccc(C2OC(=O)NC2=O)c1` (stereo unspecified) were over 50 µM and over 3 µM.
By bioavailability is commonly meant the share of a dose that reaches the circulation, judged against a reference dose that is usually intravenous. As usually defined, the CL/F is the apparent clearance, not corrected for the fraction that reaches the circulation. The compound `CCCc1cc(C(=O)C2CCCCC2)ccc1OCCCOc1cccc(C2SC(=O)NC2=O)c1` (stereo unspecified) displayed a bioavailability in data set [3] of 7.8%. In data set [4], the AUC came to 0.07 µM. Also, the IC50 in [1] is over 50 µM. In data set [2], the EC50 was over 3 µM. The compound also returned a CL/F in [5] of 29.5 mL/min/kg.
`CCCc1cc(OC2CCCCC2)ccc1OCCCOc1cccc(C2SC(=O)NC2=O)c1` (stereo unspecified) yielded a bioavailability in data set [3] of 10%. In [4], this compound came in with an AUC of 0.3 µM. Moreover, the IC50 in data set [1] is over 50 µM. In addition, in [2], the EC50 is over 3 µM.
A word on the half-life: it is the time needed for the level to fall by half in the phase considered. Low values mean fast loss, high ones slow loss. `CCCc1ccccc1OCCCOc1cccc(C2OC(=O)NC2=O)c1` (stereo unspecified) yielded a bioavailability in data set [3] of 27%. The same compound showed an AUC in data set [6] of 1.1 µM. The figures for the EC50 in [7] and in [2] were 53 nM and over 3 µM, respectively. In addition, the IC50 is over 5 µM in [1] and 80 nM in data set [9]. In [8], this compound had a half-life of 216 min.
As to `CCCc1cc(CC2CCCCC2)ccc1OCCCOc1cccc(C2SC(=O)NC2=O)c1` (stereo unspecified), the IC50 in data set [1] was over 50 µM. This compound returned an EC50 in [2] of over 3 µM.
For `CCCc1cc(-c2ccccc2)ccc1OCCCOc1cccc(C2OC(=O)NC2=O)c1` (stereo unspecified), in that order: 1.51 µM and over 3 µM.
In data set [1], `CCCc1cc(C(=O)c2ccccc2)ccc1OCCCOc1cccc(C2SC(=O)NC2=O)c1` (stereo unspecified) had an IC50 of 0.17 µM. The same compound showed an EC50 in data set [2] of over 3 µM.
Compound `CCCc1cc(C2CCC(F)(F)CC2)ccc1OCCCOc1cccc(C2OC(=O)NC2=O)c1` (stereo unspecified) gave an IC50 in data set [1] of over 50 µM. The compound also yielded an EC50 in data set [2] of over 3 µM.
Compound `CCCc1cc(-c2noc3ccccc23)ccc1OCCCOc1cccc(C2SC(=O)NC2=O)c1` (stereo unspecified) returned an IC50 in data set [1] of 0.14 µM.
`CCCc1cc(C2CCC(=O)CC2)ccc1OCCCOc1cccc(C2OC(=O)NC2=O)c1` (stereo unspecified) gave an IC50 in data set [1] of over 50 µM.

Values taken from ChEMBL document CHEMBL1136294, “Aryloxazolidinediones: identification of potent orally active PPAR dual alpha/gamma agonists” (Bioorg Med Chem Lett, 2003).
